Results: patent publication US20240261292A1, “COMBINATION THERAPIES” (Janssen Pharmaceutica NV, priority 2021, published 2024)
Like-named read-outs stand apart in the source and are kept apart here.

Columns and labels:
[1] = test system: OCI-AML3 tumors; settings: established OCI-AML3 tumors, NSG mice, 4 weeks; Azacitidine 2 mg/kg ip QD × 7; Compound A1 30 mg/kg po QD × 28
Experimental: For survival assessment, results were plotted as the percentage survival against days post tumor implant. Negative clinical signs and/or ≥20% body weight loss was used as a surrogate endpoint for death. Median survival was determined utilizing Kaplan-Meier survival analysis. The percent increased life span (ILS) was calculated as: ((median survival day of treated group—median survival day of control group)/median survival day of control group)×100. Animals failing to reach the surrogate endpoint due to adverse clinical signs (such as ulcerated tumors, body weight loss, etc.) or death unrelated to treatment were censored for the survival assessment.

[2] = test system: MOLM-13 tumors; settings: established MOLM-13 tumors, NSG mice, 4 weeks; Azacitidine 2 mg/kg ip QD × 7; Compound A1 10 mg/kg po QD × 28
Experimental: 11) Efficacy of Menin-MLL Inhibitor in Combination with Azacitidine, in MOLM-13 (KMT2A-r) IV Model in NSG Mice
Each mouse received an injection of 1×10^5 MOLM-13 cells, and all other parameters were conducted as described for experiment (10).

[3] = target: hERG potassium channel (Homo sapiens (Human), UniProt Q12809); assay: Membrane potassium current IKr in hERG transfected CHO cells (Protocol 1, QPatch); type: cell-based; settings: Protocol 1, CHO cells
Experimental: Experiments were performed using CHO cells stably expressing the hERG potassium channel. Cells were grown at 37° C. and 5% CO2 in culture flasks in Ham's F12 Medium supplemented with 10% heat-inactivated fetal calf serum, hygromycin B (100 μg/ml) and geneticin (100 μg/ml). For use in the automated patch-clamp system QPatch (Sophion) cells were harvested to obtain cell suspension of single cells. […]
Patch-clamp experiments were performed in the voltage-clamp mode and whole-cell currents were recorded with an automated patch-clamp assay utilizing the QPatch system (Sophion). Current signals were amplified and digitized, stored and analyzed by using the QPatch assay software.
The holding potential was −80 mV. The hERG current (K^+-selective outward current) was determined as the maximal tail current at −40 mV after a 2 second depolarization to +60 mV. […] The effect of each concentration was determined after 5 min as an average current of 3 sequential voltage pulses. […]
Concentration/response relations were calculated by non-linear least-squares fits to the individual data points. The half-maximal inhibiting concentration (IC50) was calculated by the fitting routine.

[4] = Metabolic stability in mouse liver microsomes; type: in vitro ADME; settings: liver microsomes, pH 7.4, 0.5 mg/mL microsomes protein, read-out: Mouse LM Clint
Experimental: 4) Metabolic Stability in Human/Mouse Liver Microsomes
The objective of this study is to measure in vitro metabolic stability of test compound(s) in human and mouse liver microsomes and provide quantitative information on the rate of metabolic turnover (i.e., determination of the apparent intrinsic clearance of test).
Test items were prepared at a stock concentration of 10 mM in DMSO. For determination of metabolic turnover, a final working solution was prepared by adding 2 μL of 10 mM DMSO stock solution for test compound or positive control compounds to 198 μL of acetonitrile (100 μM final concentration).
Incubations were performed as follows: First, liver microsomes were thawed on ice and a master solution containing liver microsomes in 100 mM PBS (phosphate-buffered saline) at pH 7.4 is prepared. Next, the liver microsomes solution was added to the incubation plates and 10 mM NADPH (Nicotinamide-adenine dinucleotide phosphate) was added (MW: 833.4 g/mol; Roche Diagnostics GmbH1, Germany. Dissolved in phosphate buffer (100 mmol/L, pH 7.4)). The mixture was mixed for 10 seconds and pre-warmed in the incubation plate at 37° C. for 10 minutes. The metabolic reaction was initiated with the addition of 5 μL of the 100 μM working solution for test compound or positive control compounds to incubation plate (final test item concentration=1 μM). The reaction final mixture should contain 1 mM NADPH, 0.5 mg/mL microsomes protein and 1 μM test compound or positive control compound in 100 mM PBS at pH 7.4. The percentage of organic solvent in incubation mixture is 1% with DMSO 0.02%.
The reaction was quenched by transferring 50 μL of the incubated mixture at selected time points into the quenching plate containing 200 μL of cold methanol. […]
All calculations were carried out using Microsoft Excel. The slope value, k, was determined by linear regression of the natural logarithm of the remaining percentage of the parent drug vs. incubation time curve.
The in vitro half-life (in vitro t1/2) was determined from the slope value: […]

[5] = Mouse PK (in vivo T1/2 and oral bioavailability); settings: male, CD-1, mouse, in vivo, fasted male CD-1 mice, formulating agent: A HP-β-CD, A3 Pyrogen free water
Experimental: 3) Mouse PK (In Vivo T1/2 and Oral Bioavailability)
In vivo pharmacokinetics (PK) were assessed in fasted male CD-1 mice (age 6-8 weeks) following a single intravenous (IV, 0.5 or 1.0 mg/kg administered at 2.5 ml/kg) or oral (PO, 5 mg/kg administered at 10 ml solution/kg) dose of test article formulated in a 20% (w:vol) HP-β-CD solution or in Pyrogen free water.
Plasma and/or whole blood samples were collected from the dorsal metatarsal vein at desired timepoints via serial capillary microsampling (approx. 0.03 mL) using EDTA as an anticoagulant. Concentrations of compound in the plasma and blood samples were analyzed using a qualified LC-MS/MS method. In silico analysis of main pharmacokinetic parameters was performed using WinNonlin (Phoenix™, version 6.1) or similar software.)

[6] = test system: MOLM-13 tumors; assay: Efficacy of menin-MLL inhibitor in combination with gilteritinib in MOLM-13 (KMT2A-r) IV model; type: in vivo; settings: established MOLM-13 tumors, NSG mice, 4 weeks; Gilteritinib 10 mg/kg po QD × 28; Compound A1 10 mg/kg po QD × 28
Text: 12) Efficacy of Menin-MLL Inhibitor in Combination with Gilteritinib, in MOLM-13 (KMT2A-r) IV Model in NSG Mice

hERG potassium channel, sequence (Q12809 whole entry): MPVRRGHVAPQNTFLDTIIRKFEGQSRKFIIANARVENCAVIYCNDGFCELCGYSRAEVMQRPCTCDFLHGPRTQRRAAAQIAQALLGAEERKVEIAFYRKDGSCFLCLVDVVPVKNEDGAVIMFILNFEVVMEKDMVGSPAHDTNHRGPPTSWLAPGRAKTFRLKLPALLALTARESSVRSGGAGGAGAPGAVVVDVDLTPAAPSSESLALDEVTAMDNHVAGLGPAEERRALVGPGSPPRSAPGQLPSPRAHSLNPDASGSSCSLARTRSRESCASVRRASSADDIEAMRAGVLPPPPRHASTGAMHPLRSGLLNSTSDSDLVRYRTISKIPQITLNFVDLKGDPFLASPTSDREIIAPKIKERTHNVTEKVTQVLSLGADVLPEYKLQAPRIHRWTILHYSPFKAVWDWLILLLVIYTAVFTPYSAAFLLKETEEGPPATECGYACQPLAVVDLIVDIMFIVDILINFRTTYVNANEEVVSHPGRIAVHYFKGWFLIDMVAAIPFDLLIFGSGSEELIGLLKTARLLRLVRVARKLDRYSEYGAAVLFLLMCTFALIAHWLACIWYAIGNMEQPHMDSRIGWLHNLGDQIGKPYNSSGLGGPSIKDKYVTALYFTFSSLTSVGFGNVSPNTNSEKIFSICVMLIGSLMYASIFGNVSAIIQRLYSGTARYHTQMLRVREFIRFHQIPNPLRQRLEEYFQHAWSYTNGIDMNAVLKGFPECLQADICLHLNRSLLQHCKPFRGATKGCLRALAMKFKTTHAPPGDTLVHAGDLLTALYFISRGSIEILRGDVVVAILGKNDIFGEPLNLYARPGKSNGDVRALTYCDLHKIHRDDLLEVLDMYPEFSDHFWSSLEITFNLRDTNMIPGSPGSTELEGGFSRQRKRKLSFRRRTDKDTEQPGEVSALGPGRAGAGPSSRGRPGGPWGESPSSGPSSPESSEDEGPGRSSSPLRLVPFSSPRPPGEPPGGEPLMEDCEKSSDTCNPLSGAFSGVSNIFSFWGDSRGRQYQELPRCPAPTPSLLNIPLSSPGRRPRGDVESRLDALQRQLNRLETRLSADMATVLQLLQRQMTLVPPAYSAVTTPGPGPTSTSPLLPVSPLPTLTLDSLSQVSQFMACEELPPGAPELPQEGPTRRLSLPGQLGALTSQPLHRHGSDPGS

Nc1ncn([C@@H]2O[C@H](CO)[C@@H](O)[C@H]2O)c(=O)n1 [Azacitidine]
% ILS [1]: *18%
% ILS [2]: *35%

CCN(C(=O)c1cc(F)ccc1Oc1nncnc1N1CCC2(C1)CN([C@H](CCCN(C)CCOC)C(C)C)C2)C(C)C [Compound A, (R)-N-ethyl-5-fluoro-N-isopropyl-2-((5-(2-(6-((2-methoxyethyl) (methyl)amino)-2-methylhexan-3-yl)-2,6-diazaspiro[3.4]octan-6-yl)-1,2,4-triazin-6-yl)oxy) benzamide]
IC50 [3]: > 30.2 µM
microsomal CLint at 1 μM [4]: < 7.5 µL/min/mg
half-life ([5]; iv, 1 mg/kg, single IV 0.5 or 1.0 mg/kg): 6.7 h
bioavailability ([5]; po, 5 mg/kg, single PO 5 mg/kg): 17%

CCc1nc(C(N)=O)c(Nc2ccc(N3CCC(N4CCN(C)CC4)CC3)c(OC)c2)nc1NC1CCOCC1 [Gilteritinib, gilteritinib]
% ILS [6]: *63%
